# Experimental data: ChEMBL document CHEMBL3352340, “7-Amino-2-phenylpyrazolo[4,3-d]pyrimidine derivatives: structural investigations at the 5-position to target human A₁ and A(2A) adenosine receptors. Molecular modeling and pharmacological studies” (Eur J Med Chem, 2014)
# Active and inactive are the calls of the source. No cut-off for these calls is given here.
# Tests used:
# [1] = target: T1, Adenosine receptor A2a (Homo sapiens, UniProt P29274); assay: Displacement of [3H]ZM241385 from human adenosine A2A receptor expressed in CHO cells by scintillation counting analysis; assay type: cell-based
# T1 sequence (P29274 whole entry): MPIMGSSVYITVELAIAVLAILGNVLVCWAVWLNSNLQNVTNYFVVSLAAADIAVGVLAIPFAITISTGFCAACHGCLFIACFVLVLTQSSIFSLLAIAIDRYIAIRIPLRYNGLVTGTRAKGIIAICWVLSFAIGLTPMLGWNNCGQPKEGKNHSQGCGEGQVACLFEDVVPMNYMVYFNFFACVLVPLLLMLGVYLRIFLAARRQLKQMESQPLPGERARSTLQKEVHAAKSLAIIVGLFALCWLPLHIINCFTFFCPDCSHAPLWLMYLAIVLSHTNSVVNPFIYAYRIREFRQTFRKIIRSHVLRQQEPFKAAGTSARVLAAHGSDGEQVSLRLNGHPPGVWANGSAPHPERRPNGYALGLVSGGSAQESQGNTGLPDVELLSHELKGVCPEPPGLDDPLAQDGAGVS
# [2] = target: T2, Adenosine receptor A2b (Homo sapiens) (UniProt P29275); assay: Antagonist activity at human adenosine A2B receptor expressed in CHO cells assessed as inhibition of NECA-stimulated cAMP level at 1 uM by scintillation counting analysis; assay type: functional, cell-based
# T2 sequence (whole entry): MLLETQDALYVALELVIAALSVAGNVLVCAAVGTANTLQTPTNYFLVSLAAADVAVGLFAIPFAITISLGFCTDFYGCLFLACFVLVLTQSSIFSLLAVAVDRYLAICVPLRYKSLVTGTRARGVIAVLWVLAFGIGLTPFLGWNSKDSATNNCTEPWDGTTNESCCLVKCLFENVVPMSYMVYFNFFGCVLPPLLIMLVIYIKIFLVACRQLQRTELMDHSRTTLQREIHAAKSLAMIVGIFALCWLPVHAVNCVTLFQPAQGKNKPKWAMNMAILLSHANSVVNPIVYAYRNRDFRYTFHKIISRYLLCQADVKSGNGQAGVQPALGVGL
# [3] = target: T3, Adenosine receptor A3 (Homo sapiens, UniProt P0DMS8); assay: Displacement of [3H]AB-MECA from human adenosine A3 receptor expressed in CHO cells by scintillation counting analysis; assay type: cell-based
# T3 sequence (P0DMS8 whole entry): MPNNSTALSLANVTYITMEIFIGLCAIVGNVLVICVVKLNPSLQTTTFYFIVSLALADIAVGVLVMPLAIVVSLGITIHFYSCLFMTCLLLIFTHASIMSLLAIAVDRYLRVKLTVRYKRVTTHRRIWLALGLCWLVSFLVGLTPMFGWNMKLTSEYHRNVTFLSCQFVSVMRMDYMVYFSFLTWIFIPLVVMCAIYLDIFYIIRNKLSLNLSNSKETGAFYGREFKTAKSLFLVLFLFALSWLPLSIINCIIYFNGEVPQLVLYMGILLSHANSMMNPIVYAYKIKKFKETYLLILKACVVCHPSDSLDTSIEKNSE
# [4] = target: T4, Adenosine receptor A1 (Homo sapiens, UniProt P30542); assay: Displacement of [3H]-DPCPX from human adenosine A1 receptor expressed in CHO cells by scintillation counting analysis; assay type: cell-based
# T4 sequence (P30542 whole entry): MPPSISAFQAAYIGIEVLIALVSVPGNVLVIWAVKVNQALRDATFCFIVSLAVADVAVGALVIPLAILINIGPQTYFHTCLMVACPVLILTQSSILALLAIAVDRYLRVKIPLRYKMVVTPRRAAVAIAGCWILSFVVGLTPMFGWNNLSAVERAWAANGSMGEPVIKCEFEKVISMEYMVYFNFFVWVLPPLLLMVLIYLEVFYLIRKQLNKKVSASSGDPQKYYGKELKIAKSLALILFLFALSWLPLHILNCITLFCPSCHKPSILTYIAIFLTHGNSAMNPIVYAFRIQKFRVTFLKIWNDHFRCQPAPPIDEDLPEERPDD
# [5] = target: T5, Adenosine receptor A1 (Homo sapiens) (UniProt P30542); conditions: CHO, 100 nM
# T5 sequence (whole entry): T4 sequence (P30542 whole entry)
# Description: Antagonist activity at human adenosine A1 receptor expressed in CHO cells assessed as inhibition of CCPA-stimulated cAMP level at 100 nM by scintillation counting analysis
# [6] = target: T1, Adenosine receptor A2a; assay: Displacement of [3H]ZM241385 from human adenosine A2A receptor expressed in CHO cells at 1 uM by scintillation counting analysis relative to control; assay type: cell-based
# [7] = target: T6, Adenosine receptor A3 (Homo sapiens) (UniProt P0DMS8); assay: Displacement of [3H]AB-MECA from human adenosine A3 receptor expressed in CHO cells at 1 uM by scintillation counting analysis relative to control; assay type: cell-based
# T6 sequence (whole entry): T3 sequence (P0DMS8 whole entry)
# [8] = target: T5, Adenosine receptor A1 (Homo sapiens); assay: Displacement of [3H]-DPCPX from human adenosine A1 receptor expressed in CHO cells at 1 uM by scintillation counting analysis relative to control; assay type: cell-based
# [9] = target: T7, Adenosine receptor A2b (Homo sapiens, UniProt P29275); assay: Antagonist activity at human adenosine A2B receptor expressed in CHO cells assessed as inhibition of NECA-stimulated cAMP level by scintillation counting analysis; assay type: functional, cell-based
# T7 sequence (P29275 whole entry): T2 sequence (whole entry)
# [10] = target: T4, Adenosine receptor A1; assay: Antagonist activity at human adenosine A1 receptor expressed in CHO cells assessed as inhibition of CCPA-stimulated cAMP level by scintillation counting analysis; assay type: functional, cell-based
# [11] = target: T1, Adenosine receptor A2a; assay: Antagonist activity at human adenosine A2A receptor expressed in CHO cells assessed as inhibition of NECA-stimulated cAMP level by scintillation counting analysis; assay type: functional, cell-based
Compound,Ki [1] [nM],inhibition [2] [%],Ki [3] [nM],Ki [4] [nM],inhibition [5],inhibition [6] [%],inhibition [7] [%],inhibition [8] [%],IC50 [9] [nM],IC50 [10] [nM],IC50 [11] [nM]
OC[C@H]1O[C@@H](n2cnc3c(NC4CCCC4)nc(Cl)nc32)[C@H](O)[C@@H]1O,–,–,–,–,Active,–,–,–,–,–,–
COc1ccc(CCc2nc(N)c3nn(-c4ccccc4)cc3n2)cc1,–,9,–,380,–,13,22,–,–,–,–
Nc1nc(CCCc2cccc(O)c2)nc2cn(-c3ccccc3)nc12,146,–,–,0.22,–,–,46,–,314,2.87,–
CC(C)c1nc(N)c2nn(-c3ccccc3)cc2n1,–,5,–,–,–,22,11,2,–,–,–
COc1cccc(CCCc2nc(N)c3nn(-c4ccccc4)cc3n2)c1,147,–,–,0.15,–,–,33,–,334,2.41,–
CCc1nc(N)c2nn(-c3ccccc3)cc2n1,–,49,–,90,–,38,38,–,–,–,–
Nc1nc(CCc2ccccc2)nc2cn(-c3ccccc3)nc12,–,2,–,–,–,35,17,15,–,–,–
COc1ccccc1CCCc1nc(N)c2nn(-c3ccccc3)cc2n1,153,–,–,1.31,–,–,47,–,387,12,–
COc1ccccc1Cc1nc(N)c2nn(-c3ccccc3)cc2n1,213,1,572,375,–,–,–,–,–,–,–
Nc1nc(CCc2ccc(O)cc2)nc2cn(-c3ccccc3)nc12,–,7,–,420,–,30,37,–,–,–,–
COc1ccc(Cc2nc(N)c3nn(-c4ccccc4)cc3n2)cc1,–,5,–,–,–,20,38,48,–,–,–
Nc1nc(CCCc2ccc(OCc3ccccc3)cc2)nc2cn(-c3ccccc3)nc12,–,8,–,–,–,3,2,14,–,–,–
Nc1ncnc2cn(-c3ccccc3)nc12,410,–,–,80,–,–,4,–,630,–,–
CC(C)Cc1nc(N)c2nn(-c3ccccc3)cc2n1,–,1,–,–,–,50,13,49,–,–,–
C=CCOc1ccc(CCCc2nc(N)c3nn(-c4ccccc4)cc3n2)cc1,–,3,–,–,–,15,3,40,–,–,–
Nc1nc(CCCc2ccccc2O)nc2cn(-c3ccccc3)nc12,102,–,–,0.54,–,–,36,–,247,4.26,–
Nc1nc(Cc2ccc3c(c2)OCO3)nc2cn(-c3ccccc3)nc12,–,1,–,75,–,2,14,–,–,–,–
COc1ccc(CCCc2nc(N)c3nn(-c4ccccc4)cc3n2)cc1,790,30,–,16,–,–,1,–,–,–,–
Nc1nc(CCCc2ccccc2)nc2cn(-c3ccccc3)nc12,55,42,–,5.31,–,–,12,–,432,43,423
Nc1nc(/C=C/c2ccccc2)nc2cn(-c3ccccc3)nc12,–,7,–,480,–,21,25,–,–,–,–
Nc1nc(CCCc2ccc(O)cc2)nc2cn(-c3ccccc3)nc12,722,5,–,18,–,–,20,–,–,–,–

# Next, values leading:
Ki [1] [nM],inhibition [2] [%],Ki [3] [nM],Ki [4] [nM],inhibition [5],inhibition [6] [%],inhibition [7] [%],inhibition [8] [%],IC50 [9] [nM],IC50 [10] [nM],IC50 [11] [nM],Compound
89,1,97,64,–,–,–,–,–,–,–,Nc1nc(Cc2ccccc2O)nc2cn(-c3ccccc3)nc12
–,1,–,–,–,6,42,32,–,–,–,Nc1nc(Cc2cccc(Cl)c2)nc2cn(-c3ccccc3)nc12
–,21,–,–,–,31,11,41,–,–,–,Cc1cccc(Cc2nc(N)c3nn(-c4ccccc4)cc3n2)c1
–,3,–,155,–,44,22,–,–,–,–,Nc1nc(Cc2ccccc2Cl)nc2cn(-c3ccccc3)nc12
521,1,435,312,–,–,–,–,–,–,–,Nc1nc(Cc2cccc(O)c2)nc2cn(-c3ccccc3)nc12
–,21,–,–,–,26,39,38,–,–,–,Cc1ccc(Cc2nc(N)c3nn(-c4ccccc4)cc3n2)cc1
–,1,–,–,–,1,11,49,–,–,–,Nc1nc(Cc2ccc(Cl)cc2)nc2cn(-c3ccccc3)nc12
–,1,–,–,–,21,41,1,–,–,–,Nc1nc(Cc2cccc(C(F)(F)F)c2)nc2cn(-c3ccccc3)nc12
–,4,–,–,–,44,20,39,–,–,–,Nc1nc(Cc2ccc(O)cc2)nc2cn(-c3ccccc3)nc12
–,1,–,90,–,14,37,–,–,–,–,COc1cccc(Cc2nc(N)c3nn(-c4ccccc4)cc3n2)c1
154,–,–,35,–,–,37,–,123,–,–,Nc1nc(Cc2ccccc2F)nc2cn(-c3ccccc3)nc12
